The source of these data is article PMC10290391, “Targeted degradation of ⍺-synuclein aggregates in Parkinson’s disease using the AUTOTAC technology” (Molecular Neurodegeneration, 2023).

Molecules are shown by their SMILES. Converted amounts (≈) assume the structure as drawn.

The nature of data set [1]: Pharmacokinetics of ATL compounds after oral administration in ICR male mice. Format: in vivo. The settings on record: 5 mg/kg oral. As for the experimental part: Supplementary file 13024_2023_630_MOESM1_ESM.eps: Additional file 1: Supplementary figure 1. Drug profiles of ATL and Autotac compounds. A, drug profiles of ATL compounds. Tissue concentrations and oral bioavailability were measured in ICR male mice upon 5 mg/kg oral administration of each ATL compound. B, structures of ATC161~164. C, Pharmacokinetic study of ATC161 conducted in male ICR mice otherwise indicated. M.W. represents molecular weight. The plasma exposure and the half-life were determined upon either POor IPATC161 administration. The drug tissue exposure was determined in Tau301L BiFC mice. IV refers to intravenous injection.

Data set [2] relates to HEK293A cells transduced with h-α-syn PFFs. As to the kind of experiment: Immunocytochemistry in HEK293A cells transduced with h-α-syn PFFs. Format: cell-based, human. The conditions noted are these: 1 μM, 24 h. The protocol: Recombinant human α-syn (1–140) were obtained from NKMAX (SNA2001L). In vitro fibrillization was performed by diluting recombinant α-syn monomers to 1 mg/mL in sterile PBS, then incubating at 37 °C with constant agitation at 1,000 rpm for seven days. The fibrillization was verified by thioflavin T and sedimentation assays. The ability to form phospho-α-syn (S129) was also assessed by immunocytochemistry. In addition, to determine whether the generated PFFs act as seeds to accumulate endogenous α-syn, an adenovirus that expresses c-Myc-His-tagged human α-syn (gifted from lab of S.J.L) was used to infect cultured cells at an MOI of 10, followed by a fractionation assay. The administration of PFFs into 293A cells was done with protein delivery reagent (BioPORTER QuikEase Protein Delivery Kit, Sigma) following the provider’s instruction. The mouse α-syn PFFs were obtained from StressMarq (SPR-324). Prior to treatment, PFFs were sonicated at 20% amplitude, 1 s pulse on and off for 30 s (SONICS Vibra Cell sonicator, Merck Z412619). For cells, α-syn monomers and PFFs were transduced at 1 µg/mL.
Cells were fixed with 4% paraformaldehyde (PFA) for 20 min at room temperature, followed by permeabilization with 0.1% Triton X-100 buffer for 15 min. The cells were blocked with 2% bovine serum albumin (BSA) in PBS for 1 h at room temperature. Then, the cells were incubated with primary antibodies diluted in the blocking buffer overnight at 4 °C. After washing with PBS, the slides were incubated with AlexaFluor-conjugated secondary antibodies for 1 h at room temperature. After mounting the slides with mounting solution containing DAPI, the images were captured on an LSM700 confocal microscopy (Carl Zeiss).

Data set [3] addresses T1, p62 and α-syn aggregates (Homo sapiens, UniProt P37840+Q13501).
T1 construct: Recombinant human α-syn (1–140) were obtained from NKMAX (SNA2001L); endogenous in cells; host or cells: HEK293A cells transduced with h-α-syn PFFs
As to the kind of experiment: Proximity ligation assay (PLA) of p62 and α-syn in HEK293A cells. In kind it is cell-based. The conditions noted are these: α-syn PFF-transduced cells; 1 μM, 6 h. As for the experimental part:
Proximity ligation assays were conducted using a PLA kit (Sigma-Aldrich) according to the manufacturer’s protocol. 293A Cells were seeded on coverslips and cultured for 24 h. After fixation with 4% PFA, the cells were permeabilized with 0.1% Triton X-100. The cells were incubated with antibodies for p62 (Abcam; ab56319) and alpha-synuclein aggregates (Abcam; ab209538) overnight at 4 °C. After washing with PLA washing buffer, the cells were hybridized, ligated and amplified by rolling circle. Coverslips were mounted on slides using mounting medium containing DAPI, and the images were captured by confocal microscopy (Zeiss).

In data set [4] the test system is p62. As to the kind of experiment: p62 self-oligomerization and LC3 synthesis/lipidation by ATLs (in vitro p62 aggregation assay, rat cortex primary neurons). Format: cell-based. The conditions noted are these: ATL7, ATL13, ATL21 compared; 1 μM, 24 h in neurons, 1 mM in lysates.
For data set [5], the target named is α-syn amyloids. Set-up: method as in PMID 17597573. The settings on record: cited from earlier work.
The target of data set [6] is Tyr residues of α-syn. Set-up: method as in PMID 15096521. The conditions noted are these: cited from earlier work.
The nature of data set [7]: Solubility. In kind it is physicochemical. The settings on record: pH 7.4.
Data set [8] can be described thus: Plasma stability. In kind it is in vitro ADME. The conditions noted are these: after 120 min.

In turn, `OCCNCc1ccc(OCc2ccccc2)c(OCCCc2ccccc2)c1` [ATL7, 2-((4-(benzyloxy)-3-(3-phenylpropoxy)benzyl)amino)ethan-1-ol] came in with an AUClast in brain in data set [1] of 722.9 ng·h/g. In addition, in data set [1] (mouse, brain and plasma, brain vs plasma AUClast, read-out: B/P ratio), the Kp is around 3. In data set [2], the “increase in number of p62+LC3+ colocalizing puncta” value is “approximately 81%”. The “targeting of α-syn to LC3+ autophagic membranes” value in data set [2] (absence and presence of bafilomycin A1) is on record as “did not show significant activities”. Also, in data set [3], the “interaction between p62 and α-syn aggregates (PLA puncta)” value is “failed to enhance the interaction between p62 and α-syn aggregates”. Also, in data set [4], the “relative activity to induce p62 self-oligomerization and LC3 synthesis and lipidation” value is listed as “highest activities”.

As to `Oc1ccc(/C=C/c2cc(O)cc(O)c2)cc1` [resveratrol], the dissociation constant (Kd) in data set [5] was 36.8 µM.

On to `O=c1cc(-c2ccccc2)oc2cc(O)c(O)c(O)c12` [baicalein], for which the Kd in data set [6] is 0.5 µM.

In turn, `OCCNCc1cccc(OCc2ccc(F)cc2)c1` [ATL13, 2-((3-((4-fluorobenzyl)oxy)benzyl)amino)ethan-1-ol] returned a solubility in data set [7] of 106 µg/mL (≈ 383 µM). Besides, the “plasma stability, remaining” value in data set [8] amounted to 96.3%.

Consider `OCCNC[C@@H](O)COc1ccc(OCc2ccc(F)cc2)c(OCc2ccc(F)cc2)c1` [ATL21, (R)-1-(3,4-bis((4-fluorobenzyl)oxy)phenoxy)-3-((2hydroxyethyl)amino)propan-2-ol], for which the AUC(0-t) in data set [1] (mouse, plasma, read-out: oral bioavailability, AUClast) stood at 2590 ng·h/mL.

Broadly, the Kd is the free concentration of one partner at which half of the binding sites on the other are occupied at equilibrium, for simple one-to-one binding. The term solubility denotes the dissolved amount per volume that the medium holds. A low value points to little dissolved substance.
